Laboratory results: patent US10670605B2, “Cysteine reactive probes and uses thereof” (The Scripps Research Institute, priority 2015, dated 2020)

Tests used:
Experiment in all cases: Competitive isoTOP-ABPP in situ (fragment-treated cells)
Type in all cases: cell-based
[1] = target: cysteines in MDA-MB-231 and Ramos cells (Homo sapiens, UniProt O00299)
[2] = target: T1, cysteines in MDA-MB-231 and Ramos cells (Homo sapiens, UniProt O15294)
T1 sequence (O15294 1-1046): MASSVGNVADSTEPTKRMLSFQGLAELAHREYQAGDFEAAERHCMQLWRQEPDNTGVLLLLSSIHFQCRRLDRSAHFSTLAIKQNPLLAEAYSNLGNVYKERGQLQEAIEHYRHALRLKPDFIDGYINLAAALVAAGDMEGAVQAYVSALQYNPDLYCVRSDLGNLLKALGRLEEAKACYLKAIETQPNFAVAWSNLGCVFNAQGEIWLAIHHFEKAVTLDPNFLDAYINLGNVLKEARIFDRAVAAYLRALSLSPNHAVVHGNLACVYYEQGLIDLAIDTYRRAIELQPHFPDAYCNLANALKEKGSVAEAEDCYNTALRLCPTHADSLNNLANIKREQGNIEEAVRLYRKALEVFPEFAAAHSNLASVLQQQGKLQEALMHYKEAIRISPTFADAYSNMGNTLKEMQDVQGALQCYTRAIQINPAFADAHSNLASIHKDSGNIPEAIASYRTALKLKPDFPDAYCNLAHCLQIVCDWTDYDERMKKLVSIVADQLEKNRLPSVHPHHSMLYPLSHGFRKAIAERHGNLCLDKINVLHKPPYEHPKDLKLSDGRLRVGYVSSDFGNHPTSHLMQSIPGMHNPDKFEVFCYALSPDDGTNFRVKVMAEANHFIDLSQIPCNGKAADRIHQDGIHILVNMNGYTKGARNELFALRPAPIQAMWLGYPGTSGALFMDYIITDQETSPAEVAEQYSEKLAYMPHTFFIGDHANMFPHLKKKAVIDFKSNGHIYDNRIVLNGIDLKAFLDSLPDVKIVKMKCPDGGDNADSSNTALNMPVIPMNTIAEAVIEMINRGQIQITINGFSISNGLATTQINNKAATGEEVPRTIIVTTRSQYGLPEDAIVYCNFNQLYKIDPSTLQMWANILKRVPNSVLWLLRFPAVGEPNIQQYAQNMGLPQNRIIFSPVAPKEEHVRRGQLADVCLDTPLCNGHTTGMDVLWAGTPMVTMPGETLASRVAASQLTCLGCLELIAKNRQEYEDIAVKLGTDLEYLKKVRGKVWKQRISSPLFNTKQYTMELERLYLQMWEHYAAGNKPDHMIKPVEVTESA

[3] = target: T2, cysteines in MDA-MB-231 and Ramos cells (Homo sapiens, UniProt P24752)
T2 sequence (P24752 34-427): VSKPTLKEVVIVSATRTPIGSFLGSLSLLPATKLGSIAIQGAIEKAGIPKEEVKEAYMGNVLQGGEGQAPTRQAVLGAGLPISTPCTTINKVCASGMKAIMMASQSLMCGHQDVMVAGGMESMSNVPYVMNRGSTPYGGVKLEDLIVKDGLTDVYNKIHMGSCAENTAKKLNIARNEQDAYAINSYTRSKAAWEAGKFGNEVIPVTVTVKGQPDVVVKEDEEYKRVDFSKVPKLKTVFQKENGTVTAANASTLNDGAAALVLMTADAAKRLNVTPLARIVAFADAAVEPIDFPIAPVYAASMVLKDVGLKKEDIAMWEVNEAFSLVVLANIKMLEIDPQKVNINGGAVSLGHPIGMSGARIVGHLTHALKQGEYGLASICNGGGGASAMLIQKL

[4] = target: T3, cysteines in MDA-MB-231 and Ramos cells (Homo sapiens, UniProt P25205)
T3 sequence (P25205 1-808): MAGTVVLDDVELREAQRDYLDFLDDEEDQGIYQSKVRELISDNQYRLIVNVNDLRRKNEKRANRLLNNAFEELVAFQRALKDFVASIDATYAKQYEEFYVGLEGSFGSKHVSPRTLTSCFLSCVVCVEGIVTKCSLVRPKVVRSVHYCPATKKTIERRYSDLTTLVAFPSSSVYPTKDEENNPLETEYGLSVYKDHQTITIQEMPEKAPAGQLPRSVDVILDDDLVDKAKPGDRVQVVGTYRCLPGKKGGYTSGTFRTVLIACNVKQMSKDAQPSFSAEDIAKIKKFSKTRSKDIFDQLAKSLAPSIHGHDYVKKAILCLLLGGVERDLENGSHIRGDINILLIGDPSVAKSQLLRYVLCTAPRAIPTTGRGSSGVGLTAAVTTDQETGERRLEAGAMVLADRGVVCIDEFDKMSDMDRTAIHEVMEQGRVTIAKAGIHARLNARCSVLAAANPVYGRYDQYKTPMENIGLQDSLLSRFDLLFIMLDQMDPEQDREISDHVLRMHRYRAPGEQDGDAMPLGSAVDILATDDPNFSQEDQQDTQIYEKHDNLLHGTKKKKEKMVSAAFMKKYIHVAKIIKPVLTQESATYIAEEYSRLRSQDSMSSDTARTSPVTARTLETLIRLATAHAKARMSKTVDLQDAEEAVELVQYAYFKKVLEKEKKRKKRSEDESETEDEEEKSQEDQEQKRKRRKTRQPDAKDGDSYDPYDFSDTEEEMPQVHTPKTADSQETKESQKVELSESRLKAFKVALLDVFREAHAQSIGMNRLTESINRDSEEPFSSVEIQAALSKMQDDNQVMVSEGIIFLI

[5] = target: cysteines in MDA-MB-231 and Ramos cells (Homo sapiens, UniProt P61978)
[6] = target: T4, cysteines in MDA-MB-231 and Ramos cells (Homo sapiens, UniProt Q9NS86)
T4 sequence (Q9NS86 1-450): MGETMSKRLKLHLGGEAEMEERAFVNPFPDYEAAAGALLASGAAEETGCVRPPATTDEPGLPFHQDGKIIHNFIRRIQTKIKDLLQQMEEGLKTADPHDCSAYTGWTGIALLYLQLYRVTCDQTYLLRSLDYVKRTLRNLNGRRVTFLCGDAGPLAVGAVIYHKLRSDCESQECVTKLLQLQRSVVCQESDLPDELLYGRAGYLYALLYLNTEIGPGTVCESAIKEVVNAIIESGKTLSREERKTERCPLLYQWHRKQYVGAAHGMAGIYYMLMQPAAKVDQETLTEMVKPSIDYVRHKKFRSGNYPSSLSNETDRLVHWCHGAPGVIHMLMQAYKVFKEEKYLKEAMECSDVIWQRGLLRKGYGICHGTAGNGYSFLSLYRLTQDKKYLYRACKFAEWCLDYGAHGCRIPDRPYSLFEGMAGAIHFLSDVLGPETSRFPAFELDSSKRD

isoTOP-ABPP reactivity O00299_C24 CLIC1 ([1]; 200 μM, insitu, 231)	isoTOP-ABPP reactivity 015294_C758 OGT ([2]; 200 μM, insitu, 231)	isoTOP-ABPP reactivity P24752_C119 ACAT1 ([3]; 200 μM, insitu, 231)	isoTOP-ABPP reactivity P24752_C126 ACAT1 ([3]; 200 μM, insitu, 231)	isoTOP-ABPP reactivity P24752_C196 ACAT1 ([3]; 200 μM, insitu, 231)	isoTOP-ABPP reactivity P24752_C413 ACAT1 ([3]; 200 μM, insitu, 231)	isoTOP-ABPP reactivity P25205_C119 MCM3 ([4]; 200 μM, insitu, 231)	isoTOP-ABPP reactivity P61978_C132 HNRNPK ([5]; 200 μM, insitu, 231)	isoTOP-ABPP reactivity Q9NS86_C187 LANCL2 ([6]; 200 μM, insitu, 231)	other results	SMILES
9.5	2.6	2.6	9.1	20.0	20.0	3.5	5.0			COc1ccc2c(c1)CCCN2C(=O)CCl [compound 2]
									isoTOP-ABPP reactivity O00299_C24 CLIC1 ([1]; 100 μM in situ 231): 20.0; isoTOP-ABPP reactivity 015294_C758 OGT ([2]; 100 μM in situ 231): 6.4; isoTOP-ABPP reactivity O15294_C620 OGT ([2]; 100 μM in situ 231): 20.0; isoTOP-ABPP reactivity P24752_C119 ACAT1 ([3]; 100 μM in situ 231): 3.0; isoTOP-ABPP reactivity P24752_C126 ACAT1 ([3]; 100 μM in situ 231): 2.8; isoTOP-ABPP reactivity P24752_C196 ACAT1 ([3]; 100 μM in situ 231): 3.5; isoTOP-ABPP reactivity P24752_C413 ACAT1 ([3]; 100 μM in situ 231): 4.5; isoTOP-ABPP reactivity P25205_C119 MCM3 ([4]; 100 μM in situ 231): 4.3; isoTOP-ABPP reactivity P61978_C132 HNRNPK ([5]; 100 μM in situ 231): 3.8; isoTOP-ABPP reactivity Q9NS86_C187 LANCL2 ([6]; 100 μM in situ 231): 1.6	COc1ccc(C2CC(c3cccs3)=NN2C(=O)CCl)cc1 (stereo not shown) [compound 4]
10.3	2.4	5.5	4.5		20.0	3.5	4.2	6.1		COc1cc2c(cc1OC)CN(C(=O)CCl)CC2 [compound 8]
3.0	2.1	3.8	14.1	5.8	19.5	1.9	1.4	15		O=C(CCl)N1CCC(Cc2ccccc2)CC1 [compound 9]
									isoTOP-ABPP ratio O00299_C24 ([1]; 200 μM, insitu, 231): 5.0; isoTOP-ABPP ratio O15294_C758 ([2]; 200 μM, insitu, 231): 2.3; isoTOP-ABPP ratio, cysteine O15294_C620 ([2]; 200 μM, insitu, ramos): 12 .0; isoTOP-ABPP ratio P24752_C119 ([3]; 200 μM, insitu, 231): 4.5; isoTOP-ABPP ratio P24752_C413 ([3]; 200 μM, insitu, 231): 7.8; isoTOP-ABPP ratio, P24752_C126 ([3]; 200 μM, insitu, 231): 5.9; isoTOP-ABPP ratio, P24752_C196 ([3]; 200 μM, insitu, 231): 5.1; isoTOP-ABPP ratio P24752_C119 ([3]; 200 μM, insitu, ramos): 1.5; isoTOP-ABPP ratio P24752_C413 ([3]; 200 μM, insitu, ramos): 2.2; isoTOP-ABPP ratio, P24752_C196 ([3]; 200 μM, insitu, ramos): 2.3; isoTOP-ABPP ratio P25205_C119 ([4]; 200 μM, insitu, 231): 2.3; isoTOP-ABPP ratio P61978_C132 ([5]; 200 μM, insitu, 231): 5.6; isoTOP-ABPP ratio P61978_C132 ([5]; 200 μM, insitu, ramos): 1.6; isoTOP-ABPP ratio Q9NS86_C187 ([6]; 200 μM, insitu, 231): 6.3	O=C(CCl)N1CCN(S(=O)(=O)c2ccccc2F)CC1 [compound 10]
